Measurements reported in article PMC8621570, “Mechanistic Studies of Antibiotic Adjuvants Reducing Kidney’s Bacterial Loads upon Systemic Monotherapy” (Pharmaceutics, 2021).

What was measured:
[1] = Peptide self-assembly (critical aggregation concentration) by static light scattering; assay type: physicochemical; conditions: light scattering in PBS
Description: (§1) Peptide self-assembly was determined by static light scattering measurements as described. Hemolysis was determined by measuring hemoglobin leakage from washed human RBCs, as described. Minimal inhibitory concentration (MIC) was determined using the microdilution assay, as described. Bactericidal kinetics were determined by mixing bacteria with rifampin, OAC, or their combinations, as described. Data were obtained from three independent assays performed in duplicate.

12 GNB strains = assay type: cell-based; conditions: OD measurements, mean of 12 GNB strains
Description: Bacteria:Escherichia coli strains: 25922 and 35218 (ATCC, Manassas, VA, USA), 14182 (clinical isolate), Ag100 and Ag100A [34] (ΔacrAB) are two K-12 isogenic mutantsand the engineered mutant ML-35p. Additional ESKAPE species tested: Klebsiella pneumoniae strains 1287 and 224 (clinical isolates), Acinetobacter baumannii ATCC strain 19606, Pseudomonas aeruginosa ATCC strains 9027 and 27853. Bacteria were grown in Luria–Bertani (LB) broth (0.5% NaCl, 0.5% yeast extract, 1% tryptone, pH = 7), except for E. coli ML-35p that was grown in tryptic-soy broth.
as §1

P. aeruginosa 27853 = assay: Excisional skin wound infection model, topical treatment; assay type: in vivo, mouse; conditions: 4 h treatment, mice n = 3 per group
Description: (§2) Animals: All animal studies were performed using male ICR mice (25 ± 2 gr). The Technion Animal Care and Use committee approved all procedures, care, and handling of animals. Ethics approval codes: IL0800519, IL0640421, IL0550618, IL1811217.
For efficacy assessments, three infection models were used including one with topical treatment and two with systemic treatment. • Excisional skin wound infection model: mice were anesthetized by intraperitoneal administration of a mixture of ketamine 100 mg/kg and xylazine 5 mg/kg in PBS and their backs shaved with electric clippers. The following day mice were similarly anesthetized and were administrated (S.C) 0.05 mg/kg buprenorphine (for pain relief). A 5 mm diameter piece of skin was removed from the middle of the shaved back, with sterile biopsy punch resulting in a full-thickness injury. A total of 20 µL of a mid-logarithmic culture, containing 5 × 10^6 CFU P. aeruginosa 27853 were applied on the wound. Then, 15 min after inoculation, about 50 µL of hypromellose gel (prepared as described) containing OAC, antibiotic, or their combination were applied on the skin and covered with a piece of medical tape. As a control, the vehicle (drug-free gel) was similarly applied on the skin. After a treatment period of 4 h, about 8 mm diameter of skin surrounding the infected area was removed, suspended in PBS, homogenized, serially diluted 10-fold, and plated for CFU enumeration. The number of viable bacteria was determined after overnight incubation at 37 °C. The lower limit of detection was 50 CFU/wound. • Thigh infection model (TI): mice were inoculated intramuscularly with 1 × 10^6 CFU/mouse of mid-logarithmic E. coli 25922 and treated subcutaneously 1 and 3 h after inoculation. Mice were sacrificed 24 h after infection, their thighs excised, homogenized, serially diluted 10-fold, and plated for CFU enumeration. The number of viable bacteria was determined after overnight incubation at 37 °C. […] The number of viable bacteria was determined after overnight incubation at 37 °C. […]

E. coli 25922 = assay: Thigh infection model; assay type: in vivo, mouse; conditions: 12.5 mg/kg S.C at 1 and 3 h post-infection, CFU/thigh at 24 h, 8 mice per group
Description: as §2
For efficacy assessments, three infection models were used including one with topical treatment and two with systemic treatment. • Excisional skin wound infection model: mice were anesthetized by intraperitoneal administration of a mixture of ketamine 100 mg/kg and xylazine 5 mg/kg in PBS and their backs shaved with electric clippers. The following day mice were similarly anesthetized and were administrated (S.C) 0.05 mg/kg buprenorphine (for pain relief). A 5 mm diameter piece of skin was removed from the middle of the shaved back, with sterile biopsy punch resulting in a full-thickness injury. A total of 20 µL of a mid-logarithmic culture, containing 5 × 10^6 CFU P. aeruginosa 27853 were applied on the wound. […] The number of viable bacteria was determined after overnight incubation at 37 °C. […] The number of viable bacteria was determined after overnight incubation at 37 °C. […] The number of viable bacteria was determined after overnight incubation at 37 °C. […]

Which “CAC, critical aggregation concentration” value [1] does the source give for `CCCCC=CCCCCCCCC(=O)N[C@@H](CCCN)C(=O)N[C@@H](CCCN)C(=O)NCCCCCCCCCC(=O)N[C@@H](CCCN)C(N)=O` [C14(ω5)OOc10O] here?
Its value is over 100 µM.

And the “MIC, LB medium” value (12 GNB strains)?
The value was over 50 µM.

And the “Reduction of CFU count” value (P. aeruginosa 27853; hypromellose gel 0.2% (w/v))?
Its value is 0.5 log10 units.

And the “Reduction of CFU count” value (P. aeruginosa 27853; hypromellose gel 1% (w/v))?
The value was 1.9 log10 units.

What about the “Effect on thigh bacterial loads” value (E. coli 25922) of the same compound?
The value was “unable to reduce bacterial loads”.
